Source: ChEMBL document CHEMBL5137068, “Discovery of Hexahydrofuro[3,2-b]furans as New Kinase-Selective and Orally Bioavailable JAK3 Inhibitors for the Treatment of Leukemia Harboring a JAK3 Activating Mutant” (J Med Chem, 2022)
Calls of active or inactive are those of the source. The calls are words filed in the database; no cut-off is given here.

Tests used:
[1] = target: Cyclin-dependent kinase 16 (Homo sapiens) (UniProt Q00536); experiment: Inhibition of human CDK16 at 0.5 uM assessed as competition rate relative to control
[2] = target: Tyrosine-protein kinase ITK/TSK (Homo sapiens) (UniProt Q08881); experiment: Inhibition of ITK (unknown origin) at 0.5 uM assessed as competition rate relative to control
[3] = test system: U-937; experiment: Induction of cell cycle arrest in human U-937 cells assessed as accumulation at G0/G1 phase at 11 nM measured after 24 hrs by propidium iodide staining based flow cytometric analysis (reference value: 62.95%); assay type: functional
[4] = target: Tyrosine-protein kinase ITK/TSK (Homo sapiens) (UniProt Q08881); experiment: Inhibition of ITK (unknown origin) at 0.5 uM relative to control
[5] = test system: U-937; experiment: Induction of cell cycle arrest in human U-937 cells assessed as accumulation at S phase at 100 nM measured after 24 hrs by propidium iodide staining based flow cytometric analysis (reference value: 15.35%); assay type: functional
[6] = test system: U-937; experiment: Induction of cell cycle arrest in human U-937 cells assessed as accumulation at S phase at 300 nM measured after 24 hrs by propidium iodide staining based flow cytometric analysis (reference value: 15.35%); assay type: functional
[7] = target: Tyrosine-protein kinase Tec (Homo sapiens) (UniProt P42680); experiment: Inhibition of TEC (unknown origin) at 0.5 uM assessed as competition rate relative to control
[8] = target: Tyrosine-protein kinase TXK (Homo sapiens) (UniProt P42681); experiment: Inhibition of TXK (unknown origin) at 0.5 uM relative to control
[9] = Half life in 12 hr fasted SPF Sprague-Dawley rat at 5 mg/kg, iv upon 2 hrs fasting post-administration measured upto 24 hrs; assay type: ADME, organism-based; conditions: in vivo
[10] = target: T1, Tyrosine-protein kinase JAK3 (Homo sapiens) (UniProt P52333); experiment: Irreversible inhibition of JAK3 in human U-937 cells assessed as decrease in P-JAK3 phosphorylation at 200 uM pretreated for 8 hrs followed by compound washout by immunoblotting analysis; assay type: cell-based
T1 sequence (whole entry): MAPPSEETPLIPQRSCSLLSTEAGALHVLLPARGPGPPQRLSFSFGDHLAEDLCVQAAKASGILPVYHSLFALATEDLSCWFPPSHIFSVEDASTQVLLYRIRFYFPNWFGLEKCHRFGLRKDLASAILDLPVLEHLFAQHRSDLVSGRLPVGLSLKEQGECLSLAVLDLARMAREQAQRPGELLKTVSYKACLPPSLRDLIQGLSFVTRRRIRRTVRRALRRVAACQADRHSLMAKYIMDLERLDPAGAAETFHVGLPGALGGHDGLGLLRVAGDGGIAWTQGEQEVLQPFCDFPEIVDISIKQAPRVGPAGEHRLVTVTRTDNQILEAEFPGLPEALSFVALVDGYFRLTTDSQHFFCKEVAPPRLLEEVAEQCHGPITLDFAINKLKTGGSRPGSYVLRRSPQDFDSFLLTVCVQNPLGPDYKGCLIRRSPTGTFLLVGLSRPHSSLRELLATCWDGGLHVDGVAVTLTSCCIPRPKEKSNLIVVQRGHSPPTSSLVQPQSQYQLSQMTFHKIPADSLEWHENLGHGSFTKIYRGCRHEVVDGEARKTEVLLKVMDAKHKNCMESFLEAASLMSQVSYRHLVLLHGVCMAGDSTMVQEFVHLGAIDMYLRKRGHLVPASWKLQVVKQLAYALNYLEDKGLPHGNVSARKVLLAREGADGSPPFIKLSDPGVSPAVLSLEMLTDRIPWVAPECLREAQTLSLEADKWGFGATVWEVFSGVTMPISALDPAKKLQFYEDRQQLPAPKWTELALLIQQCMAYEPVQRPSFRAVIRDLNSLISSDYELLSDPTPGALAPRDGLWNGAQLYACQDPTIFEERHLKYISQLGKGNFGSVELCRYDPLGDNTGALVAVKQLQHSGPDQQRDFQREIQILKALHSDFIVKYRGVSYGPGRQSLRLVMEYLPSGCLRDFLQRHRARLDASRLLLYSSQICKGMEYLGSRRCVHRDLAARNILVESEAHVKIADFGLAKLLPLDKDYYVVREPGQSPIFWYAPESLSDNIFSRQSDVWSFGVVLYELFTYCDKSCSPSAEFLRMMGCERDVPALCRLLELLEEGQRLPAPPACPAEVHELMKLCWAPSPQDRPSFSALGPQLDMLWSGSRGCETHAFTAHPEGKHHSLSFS

[11] = target: Epidermal growth factor receptor (Homo sapiens) (UniProt P00533); experiment: Inhibition of EGFR (unknown origin) at 0.5 uM relative to control
[12] = target: Tyrosine-protein kinase TXK (Homo sapiens) (UniProt P42681); experiment: Inhibition of TXK (unknown origin) at 0.5 uM assessed as competition rate relative to control
[13] = test system: U-937; experiment: Induction of cell cycle arrest in human U-937 cells assessed as accumulation at G2/M phase at 100 nM measured after 24 hrs by propidium iodide staining based flow cytometric analysis (reference value: 21.41%); assay type: functional
[14] = target: Signal transducer and activator of transcription 3 (Homo sapiens) (UniProt P40763); experiment: Inhibition of STAT3 activation in human U-937 cells assessed as decrease in P-STAT3 at 100 uM by Western blot analysis; assay type: cell-based; conditions: time 0-24 hrs, TDE = time-dependent effect
[15] = Half life in 12 hr fasted SPF Sprague-Dawley rat at 15 mg/kg, po upon 2 hrs fasting post-administration measured upto 24 hrs; assay type: ADME, organism-based; conditions: in vivo
[16] = target: NUAK family SNF1-like kinase 1 (Homo sapiens) (UniProt O60285); experiment: Inhibition of human ARK5 at 0.5 uM relative to control
[17] = target: Receptor tyrosine-protein kinase erbB-4 (Homo sapiens) (UniProt Q15303); experiment: Inhibition of HER4 (unknown origin) at 0.5 uM assessed as competition rate relative to control
[18] = test system: BaF3; experiment: cells; conditions: Mus musculus, BaF3, 72 h
[19] = target: NUAK family SNF1-like kinase 1 (Homo sapiens, UniProt O60285); experiment: Inhibition of human ARK5
[20] = AUC(0 to infinity) in 12 hr fasted SPF Sprague-Dawley rat at 5 mg/kg, iv upon 2 hrs fasting post-administration measured upto 24 hrs; assay type: ADME, organism-based; design: dose 5 mg/kg, time < 24 hrs, route iv; conditions: in vivo
[21] = test system: BaF3; experiment: cells; conditions: Mus musculus, BaF3, 72 h; remark: listed apart in the source
[22] = target: [Pyruvate dehydrogenase (acetyl-transferring)] kinase isozyme 1, mitochondrial (Homo sapiens) (UniProt Q15118); experiment: Inhibition of PDK1 (unknown origin) at 0.5 uM assessed as competition rate relative to control

Chain of Tyrosine-protein kinase TXK (Homo sapiens) (P42681 whole entry): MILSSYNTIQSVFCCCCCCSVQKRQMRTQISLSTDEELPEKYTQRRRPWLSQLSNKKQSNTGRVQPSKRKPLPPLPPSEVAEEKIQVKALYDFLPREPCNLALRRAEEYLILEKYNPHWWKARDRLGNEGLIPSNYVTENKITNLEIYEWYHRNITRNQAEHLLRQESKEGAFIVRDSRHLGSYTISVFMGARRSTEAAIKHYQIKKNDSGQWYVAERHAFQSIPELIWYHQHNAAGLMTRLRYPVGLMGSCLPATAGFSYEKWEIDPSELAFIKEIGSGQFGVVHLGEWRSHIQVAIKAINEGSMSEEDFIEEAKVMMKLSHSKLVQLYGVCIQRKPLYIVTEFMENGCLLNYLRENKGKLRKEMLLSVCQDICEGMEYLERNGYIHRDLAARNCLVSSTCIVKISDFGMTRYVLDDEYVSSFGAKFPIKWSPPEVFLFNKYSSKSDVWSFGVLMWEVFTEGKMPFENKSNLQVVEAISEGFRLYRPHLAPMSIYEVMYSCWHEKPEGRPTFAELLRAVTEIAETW
Chain of Tyrosine-protein kinase ITK/TSK (Homo sapiens) (Q08881 whole entry): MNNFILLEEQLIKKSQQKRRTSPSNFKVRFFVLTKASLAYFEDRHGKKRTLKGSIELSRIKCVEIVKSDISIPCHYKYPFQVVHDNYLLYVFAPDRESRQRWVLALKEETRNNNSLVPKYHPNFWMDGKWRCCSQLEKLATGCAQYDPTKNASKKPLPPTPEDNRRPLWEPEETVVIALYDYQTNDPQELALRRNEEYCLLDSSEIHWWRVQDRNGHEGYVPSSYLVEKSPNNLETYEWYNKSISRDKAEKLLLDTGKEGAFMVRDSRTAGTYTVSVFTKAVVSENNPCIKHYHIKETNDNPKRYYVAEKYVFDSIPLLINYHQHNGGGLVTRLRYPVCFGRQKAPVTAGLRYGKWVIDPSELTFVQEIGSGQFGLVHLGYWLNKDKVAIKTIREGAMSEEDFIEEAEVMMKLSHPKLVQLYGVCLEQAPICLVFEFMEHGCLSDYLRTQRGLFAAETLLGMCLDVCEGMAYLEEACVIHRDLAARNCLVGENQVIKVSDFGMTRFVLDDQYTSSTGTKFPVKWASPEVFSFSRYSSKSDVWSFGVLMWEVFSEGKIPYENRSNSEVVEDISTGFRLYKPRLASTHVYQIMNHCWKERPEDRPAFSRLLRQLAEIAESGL
Chain of Receptor tyrosine-protein kinase erbB-4 (Homo sapiens) (Q15303 whole entry): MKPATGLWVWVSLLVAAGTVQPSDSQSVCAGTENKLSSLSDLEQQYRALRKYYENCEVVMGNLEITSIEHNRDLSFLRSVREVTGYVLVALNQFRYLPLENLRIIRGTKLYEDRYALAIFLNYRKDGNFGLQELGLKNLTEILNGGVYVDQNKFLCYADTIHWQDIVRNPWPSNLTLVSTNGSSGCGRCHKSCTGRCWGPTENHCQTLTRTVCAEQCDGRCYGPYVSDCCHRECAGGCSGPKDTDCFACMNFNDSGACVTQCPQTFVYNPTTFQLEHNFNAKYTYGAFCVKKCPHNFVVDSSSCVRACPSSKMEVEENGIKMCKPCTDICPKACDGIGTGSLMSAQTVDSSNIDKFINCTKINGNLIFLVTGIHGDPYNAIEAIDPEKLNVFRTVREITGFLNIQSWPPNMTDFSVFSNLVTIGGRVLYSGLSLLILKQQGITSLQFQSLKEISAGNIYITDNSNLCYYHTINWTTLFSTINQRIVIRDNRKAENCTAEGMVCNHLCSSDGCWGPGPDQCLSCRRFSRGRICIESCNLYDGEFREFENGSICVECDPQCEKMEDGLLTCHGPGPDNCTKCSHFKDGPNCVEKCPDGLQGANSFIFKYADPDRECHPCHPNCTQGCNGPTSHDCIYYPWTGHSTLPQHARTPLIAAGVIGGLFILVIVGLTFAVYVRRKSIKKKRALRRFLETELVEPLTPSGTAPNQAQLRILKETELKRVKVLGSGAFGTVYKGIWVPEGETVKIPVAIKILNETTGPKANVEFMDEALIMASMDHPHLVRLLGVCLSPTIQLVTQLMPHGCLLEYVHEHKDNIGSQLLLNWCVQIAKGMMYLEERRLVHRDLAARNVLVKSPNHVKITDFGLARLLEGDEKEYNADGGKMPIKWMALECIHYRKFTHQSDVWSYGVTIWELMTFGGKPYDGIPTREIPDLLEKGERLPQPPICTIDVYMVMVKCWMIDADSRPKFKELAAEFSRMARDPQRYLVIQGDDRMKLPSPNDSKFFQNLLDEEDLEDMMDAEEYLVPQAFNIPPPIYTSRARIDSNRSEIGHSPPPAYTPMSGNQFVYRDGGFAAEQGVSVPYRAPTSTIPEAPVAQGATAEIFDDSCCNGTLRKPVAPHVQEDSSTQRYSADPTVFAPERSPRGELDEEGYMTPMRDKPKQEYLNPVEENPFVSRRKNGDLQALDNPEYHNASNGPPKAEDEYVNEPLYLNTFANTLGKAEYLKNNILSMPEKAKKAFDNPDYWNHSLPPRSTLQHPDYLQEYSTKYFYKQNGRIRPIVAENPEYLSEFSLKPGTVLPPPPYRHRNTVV
Chain of Tyrosine-protein kinase Tec (Homo sapiens) (P42680 whole entry): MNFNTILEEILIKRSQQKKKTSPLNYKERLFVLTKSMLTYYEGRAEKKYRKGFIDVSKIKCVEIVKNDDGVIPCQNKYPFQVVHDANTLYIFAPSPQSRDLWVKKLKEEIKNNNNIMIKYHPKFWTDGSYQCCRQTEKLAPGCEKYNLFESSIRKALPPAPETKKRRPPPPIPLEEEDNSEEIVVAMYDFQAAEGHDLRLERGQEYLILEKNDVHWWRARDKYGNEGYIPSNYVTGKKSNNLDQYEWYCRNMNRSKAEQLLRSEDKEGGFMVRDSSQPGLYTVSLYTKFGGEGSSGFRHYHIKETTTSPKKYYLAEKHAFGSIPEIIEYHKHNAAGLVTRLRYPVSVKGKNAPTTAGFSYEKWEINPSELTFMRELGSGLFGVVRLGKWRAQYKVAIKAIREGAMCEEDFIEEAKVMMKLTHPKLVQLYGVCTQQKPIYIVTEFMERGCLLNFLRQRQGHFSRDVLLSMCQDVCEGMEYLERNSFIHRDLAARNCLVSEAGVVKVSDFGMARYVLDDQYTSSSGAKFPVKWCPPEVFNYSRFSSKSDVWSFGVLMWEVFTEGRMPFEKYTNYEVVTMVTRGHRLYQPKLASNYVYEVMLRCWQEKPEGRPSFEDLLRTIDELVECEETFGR
Chain of NUAK family SNF1-like kinase 1 (O60285 whole entry): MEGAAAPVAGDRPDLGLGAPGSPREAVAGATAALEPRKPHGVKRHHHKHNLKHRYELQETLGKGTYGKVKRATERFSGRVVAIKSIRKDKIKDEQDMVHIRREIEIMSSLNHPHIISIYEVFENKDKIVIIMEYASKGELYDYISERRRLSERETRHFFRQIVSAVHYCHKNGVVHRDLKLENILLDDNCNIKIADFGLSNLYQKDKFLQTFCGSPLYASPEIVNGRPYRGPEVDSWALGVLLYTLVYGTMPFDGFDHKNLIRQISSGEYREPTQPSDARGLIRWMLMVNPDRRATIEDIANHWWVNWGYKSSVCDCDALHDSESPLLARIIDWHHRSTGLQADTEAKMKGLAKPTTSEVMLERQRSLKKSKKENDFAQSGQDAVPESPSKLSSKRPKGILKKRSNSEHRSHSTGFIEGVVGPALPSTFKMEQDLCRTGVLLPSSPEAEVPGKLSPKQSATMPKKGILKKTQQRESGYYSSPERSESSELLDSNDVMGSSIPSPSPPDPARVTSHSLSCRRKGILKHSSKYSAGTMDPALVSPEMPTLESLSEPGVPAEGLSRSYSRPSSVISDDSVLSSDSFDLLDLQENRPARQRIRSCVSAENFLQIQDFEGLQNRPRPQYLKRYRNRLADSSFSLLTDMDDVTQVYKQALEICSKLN
Chain of NUAK family SNF1-like kinase 1 (Homo sapiens) (O60285 whole entry): as above
Chain of Cyclin-dependent kinase 16 (Homo sapiens) (Q00536 whole entry): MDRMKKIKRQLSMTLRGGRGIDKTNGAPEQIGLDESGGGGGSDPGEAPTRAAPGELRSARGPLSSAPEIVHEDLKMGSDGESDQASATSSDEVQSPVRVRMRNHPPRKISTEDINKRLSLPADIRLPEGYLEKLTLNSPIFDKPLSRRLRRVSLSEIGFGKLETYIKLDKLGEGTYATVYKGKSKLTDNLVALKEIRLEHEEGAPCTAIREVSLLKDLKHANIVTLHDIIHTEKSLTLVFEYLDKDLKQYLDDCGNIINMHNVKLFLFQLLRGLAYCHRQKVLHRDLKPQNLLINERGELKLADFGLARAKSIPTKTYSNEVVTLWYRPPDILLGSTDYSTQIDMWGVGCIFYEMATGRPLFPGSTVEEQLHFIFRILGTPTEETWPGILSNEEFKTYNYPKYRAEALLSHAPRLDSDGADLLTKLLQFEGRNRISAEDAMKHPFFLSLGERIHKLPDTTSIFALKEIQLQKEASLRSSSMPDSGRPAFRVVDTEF
Chain of Signal transducer and activator of transcription 3 (Homo sapiens) (P40763 whole entry): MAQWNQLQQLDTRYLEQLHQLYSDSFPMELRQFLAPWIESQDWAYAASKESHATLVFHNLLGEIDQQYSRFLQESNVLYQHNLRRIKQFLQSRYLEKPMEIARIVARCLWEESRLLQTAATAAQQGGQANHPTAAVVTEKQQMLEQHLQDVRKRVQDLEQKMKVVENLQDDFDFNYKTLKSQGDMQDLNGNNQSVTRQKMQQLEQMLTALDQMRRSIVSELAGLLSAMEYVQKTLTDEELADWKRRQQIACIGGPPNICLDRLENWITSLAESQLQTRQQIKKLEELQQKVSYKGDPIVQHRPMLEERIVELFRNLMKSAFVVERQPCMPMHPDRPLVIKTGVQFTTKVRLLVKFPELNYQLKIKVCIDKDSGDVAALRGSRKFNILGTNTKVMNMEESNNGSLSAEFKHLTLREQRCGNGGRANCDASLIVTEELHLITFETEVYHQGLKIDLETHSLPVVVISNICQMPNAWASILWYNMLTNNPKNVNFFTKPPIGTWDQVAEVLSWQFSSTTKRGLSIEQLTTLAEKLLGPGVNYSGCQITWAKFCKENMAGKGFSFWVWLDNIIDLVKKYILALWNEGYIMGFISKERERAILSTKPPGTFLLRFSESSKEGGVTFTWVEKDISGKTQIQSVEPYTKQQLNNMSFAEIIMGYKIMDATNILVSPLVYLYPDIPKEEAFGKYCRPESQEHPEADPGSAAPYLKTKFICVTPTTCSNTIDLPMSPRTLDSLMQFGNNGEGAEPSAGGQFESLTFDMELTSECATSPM

inhibition [1]: 70%
inhibition [2]: 40%
inhibition [4]: 92%
inhibition [7]: 40%
inhibition [8]: 103%
half-life [9]: 54.6 min
inhibition [10]: Active
inhibition [11]: 94%
inhibition [12]: 40%
inhibition [14]: Tde
half-life [15]: 58.8 min
inhibition [16]: 11%
inhibition [17]: 40%
IC50 [18]: 134 nM
IC50 [19]: 25 nM
AUC(0-inf) [20]: 537 ng·h/mL
IC50 [21]: 178 nM
inhibition [22]: 40%
Structure (SMILES): C=CC(=O)Nc1cc(Nc2ncc(Cl)c(O[C@@H]3CO[C@H]4[C@@H]3OC[C@H]4OC)n2)ccc1N(C)CCN(C)C
Activity [3]: 62.58%
Activity [5]: 9.85%
Activity [6]: 7.5%
Activity [13]: 17.86%
